Results on 8 compounds are retold here after PubChem BioAssay (NCI).

Each structure is given as a SMILES string. Where “and” joins values, the source holds several entries; their conditions need not be identical. Identical values can stand only once.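 All cell lines were grown in 96-well plates and treated with compound for 48 hours. At the GI50, growth is halved. TGI denotes the concentration required for complete inhibition of growth.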

Some test systems named below: T-47D breast; OVCAR-5 ovarian; RPMI-8226 leukemia; SW-620 colon; NCI/ADR-RES ovarian; DU-145 prostate; SK-MEL-2 melanoma; SF-539 CNS; HT29 colon; HOP-62 NSCLC.
What all share (test): NCI-60 cell line screen, 48 h

`CCC(C)(C)C(=O)O[C@H]1C[C@@H](C)C=C2C=C[C@H](C)[C@H](CC[C@@H]3C[C@@H](O)CC(=O)O3)[C@H]21`: the GI50 in the assay on T-47D breast is 11.9 µM; in the assay on OVCAR-5 ovarian it was 9.19 µM; in the assay on RPMI-8226 leukemia, 3.79 µM; in the assay with SW-620 colon it was 3.58 µM; in the assay on NCI/ADR-RES ovarian, 0.614 µM; in the assay with DU-145 prostate it was 12.1 µM. The GI50 in the assay with SK-MEL-2 melanoma was 0.765 µM; with SF-539 CNS, 11.3 µM; with HOP-62 NSCLC, 7.37 µM. Besides, the TGI is 28.2 µM in the assay with T-47D breast; 22.9 µM in the assay with OVCAR-5 ovarian; 28.5 µM and > 30 µM with RPMI-8226 leukemia; 16.6 µM and > 30 µM with SW-620 colon; 12.1 µM in the assay with NCI/ADR-RES ovarian; 24.6 µM in the assay on DU-145 prostate. In addition, the TGI with SK-MEL-2 melanoma is 5.92 µM and 1.81 µM; with SF-539 CNS, 24.8 µM and > 30 µM; with HT29 colon it was 20.2 µM and 21.3 µM; with HOP-62 NSCLC, 20.3 µM and > 30 µM.
For the compound `CCN(CC)CCCC(C)Nc1cnc(C(=O)Nc2ccc(Cl)c3cccnc23)cn1` (stereo not drawn), the GI50 was 1.21 µM in the assay on T-47D breast; 1.83 µM with OVCAR-5 ovarian; 1.74 µM in the assay on RPMI-8226 leukemia; 2.09 µM in the assay with SW-620 colon; 2.55 µM in the assay on NCI/ADR-RES ovarian; 4.12 µM in the assay on DU-145 prostate. Besides, the GI50 is 1.95 µM in the assay with SK-MEL-2 melanoma, 1.71 µM in the assay on SF-539 CNS, 1.33 µM in the assay with HT29 colon and 1.77 µM in the assay with HOP-62 NSCLC. In addition, the TGI in the assay on T-47D breast stood at 2.97 µM; in the assay with OVCAR-5 ovarian it was 3.6 µM; in the assay with RPMI-8226 leukemia, 3.92 µM; with SW-620 colon, 4.74 µM; in the assay with NCI/ADR-RES ovarian, 9.33 µM; with DU-145 prostate it was 15.8 µM. Besides, the TGI in the assay with SK-MEL-2 melanoma was 4.34 µM; in the assay on SF-539 CNS it was 3.12 µM; in the assay with HT29 colon it was 3.26 µM; in the assay with HOP-62 NSCLC it was 3.61 µM.
Consider `Oc1ccc2cc(Br)ccc2c1-c1c(O)ccc2cc(Br)ccc12`, for which the GI50 in the assay with T-47D breast is 4.61 µM; with OVCAR-5 ovarian it was 4.23 µM; with RPMI-8226 leukemia, 2.81 µM; in the assay on SW-620 colon, 2.64 µM; with NCI/ADR-RES ovarian, 2.97 µM; with DU-145 prostate, 3.29 µM. Also, the GI50 with SK-MEL-2 melanoma is 3.82 µM; in the assay with SF-539 CNS it was 3.34 µM; in the assay on HT29 colon it was 1.75 µM; in the assay with HOP-62 NSCLC it was 2.62 µM. The TGI in the assay with T-47D breast was 17.3 µM; in the assay with OVCAR-5 ovarian, 15.6 µM; with RPMI-8226 leukemia, 9.1 µM; in the assay with SW-620 colon, 7.41 µM; in the assay with NCI/ADR-RES ovarian, 9.22 µM; in the assay on DU-145 prostate, 9.34 µM. The TGI in the assay with SK-MEL-2 melanoma was 13.5 µM; in the assay on SF-539 CNS it was 12 µM; with HT29 colon, 3.34 µM; in the assay on HOP-62 NSCLC, 11.1 µM.
As for `CC1=CC(=NC(=O)CBr)C=C/C1=N\S(=O)(=O)c1ccccc1`, the GI50 in the assay on T-47D breast was 2.1 µM; in the assay with OVCAR-5 ovarian, 2.65 µM; in the assay with RPMI-8226 leukemia, 2.9 µM; in the assay on SW-620 colon, 3.03 µM; in the assay on NCI/ADR-RES ovarian, 3.38 µM; in the assay on DU-145 prostate it was 3.63 µM. Further, the GI50 with SK-MEL-2 melanoma was 4.04 µM; in the assay with SF-539 CNS, 3.49 µM; with HT29 colon, 2.58 µM; in the assay on HOP-62 NSCLC it was 11.9 µM. The TGI in the assay with T-47D breast is 5.04 µM; in the assay with OVCAR-5 ovarian it was 6.86 µM; in the assay on RPMI-8226 leukemia it was 9.35 µM; with SW-620 colon, 10.1 µM; in the assay with NCI/ADR-RES ovarian, 14 µM; with DU-145 prostate, 12.2 µM. Further, the TGI is 16 µM in the assay with SK-MEL-2 melanoma, 12 µM in the assay with SF-539 CNS, 6.7 µM in the assay with HT29 colon and 25.1 µM in the assay with HOP-62 NSCLC.
In the case of `COc1ccc2c(c1)c(-c1ccc(-c3cn(S(=O)(=O)c4ccccc4)c4ccc(OC)cc34)s1)cn2S(=O)(=O)c1ccccc1`, the GI50 with T-47D breast, in the assay on OVCAR-5 ovarian, with RPMI-8226 leukemia, with SW-620 colon, with NCI/ADR-RES ovarian and in the assay on DU-145 prostate was greater than 100 µM in each case. Moreover, the GI50 with SK-MEL-2 melanoma, in the assay with SF-539 CNS, in the assay with HT29 colon and with HOP-62 NSCLC was greater than 100 µM in each case. Besides, the TGI in the assay with T-47D breast, with OVCAR-5 ovarian, in the assay with RPMI-8226 leukemia, in the assay with SW-620 colon, in the assay on NCI/ADR-RES ovarian and with DU-145 prostate was greater than 100 µM in each case. Further, the TGI in the assay with SK-MEL-2 melanoma, with SF-539 CNS, in the assay on HT29 colon and with HOP-62 NSCLC was greater than 100 µM in each case.
With `COc1cc2nc3sc(C(=O)Nc4ccc(C(=O)OC(C)C)cc4)c(C(=O)Nc4ccc(Cl)cc4C)n3c(=O)c2cc1OC`, the GI50 in the assay on T-47D breast was 5.59 µM; in the assay on OVCAR-5 ovarian it was 17.4 µM; in the assay on RPMI-8226 leukemia, 16 µM; in the assay on SW-620 colon, 1.88 µM; with NCI/ADR-RES ovarian it was 12.4 µM; with DU-145 prostate, 1.25 µM. Besides, the GI50 in the assay on SK-MEL-2 melanoma was greater than 100 µM; in the assay with SF-539 CNS it was 23.2 µM; in the assay with HT29 colon, 3.18 µM; with HOP-62 NSCLC, 18.7 µM. The TGI is 54.6 µM in the assay with T-47D breast; 50.2 µM with OVCAR-5 ovarian; 78.6 µM in the assay with RPMI-8226 leukemia; 25 µM in the assay with SW-620 colon; greater than 100 µM in the assay on NCI/ADR-RES ovarian; 11.4 µM in the assay on DU-145 prostate. For the same compound, the TGI in the assay on SK-MEL-2 melanoma was greater than 100 µM; with SF-539 CNS, 80.8 µM; in the assay with HT29 colon it was greater than 100 µM; in the assay with HOP-62 NSCLC it was 52.2 µM.
On to `Nc1nc(N)c(N=O)c(Nc2ccc(O)cc2)n1`, for which the TGI was greater than 96.1 µM in the assay on T-47D breast; greater than 26.1 µM in the assay with OVCAR-5 ovarian; greater than 68.2 µM with RPMI-8226 leukemia; greater than 100 µM in the assay on SW-620 colon; greater than 50.4 µM with NCI/ADR-RES ovarian; greater than 100 µM in the assay on DU-145 prostate. The TGI with SK-MEL-2 melanoma was greater than 100 µM; with SF-539 CNS, 16.3 µM; in the assay with HT29 colon, greater than 100 µM; in the assay on HOP-62 NSCLC, greater than 57.2 µM.
Turning to `COc1cc2c3c(n(CCCCOC(=O)C(F)(F)F)c(=O)c2cc1OC)-c1cc2c(cc1C3=O)OCO2`, the GI50 is greater than 100 µM with T-47D breast; greater than 100 µM in the assay with OVCAR-5 ovarian; greater than 20.4 µM in the assay on RPMI-8226 leukemia; greater than 100 µM in the assay on SW-620 colon; greater than 100 µM in the assay with NCI/ADR-RES ovarian; greater than 80 µM in the assay on DU-145 prostate. Further, the GI50 with SK-MEL-2 melanoma was greater than 100 µM; with SF-539 CNS, greater than 100 µM; in the assay on HT29 colon, greater than 100 µM; with HOP-62 NSCLC, 10.4 µM. Further, the TGI in the assay with T-47D breast, in the assay with OVCAR-5 ovarian, in the assay on RPMI-8226 leukemia, with SW-620 colon, in the assay on NCI/ADR-RES ovarian and with DU-145 prostate was greater than 100 µM throughout. For the same compound, the TGI in the assay on SK-MEL-2 melanoma, with SF-539 CNS and in the assay on HT29 colon was greater than 100 µM each time.
